Each structure is given as a SMILES string.

The target of one data set is T1, hKV10.1a (Homo sapiens, UniProt O95259).
T1 construct: expressed in transfected cells; host or cells: Xenopus laevis oocytes injected with cRNA transcribed from the hKV10.1a-pSGEM plasmid
T1 sequence (O95259 1-962 isoform O95259-2): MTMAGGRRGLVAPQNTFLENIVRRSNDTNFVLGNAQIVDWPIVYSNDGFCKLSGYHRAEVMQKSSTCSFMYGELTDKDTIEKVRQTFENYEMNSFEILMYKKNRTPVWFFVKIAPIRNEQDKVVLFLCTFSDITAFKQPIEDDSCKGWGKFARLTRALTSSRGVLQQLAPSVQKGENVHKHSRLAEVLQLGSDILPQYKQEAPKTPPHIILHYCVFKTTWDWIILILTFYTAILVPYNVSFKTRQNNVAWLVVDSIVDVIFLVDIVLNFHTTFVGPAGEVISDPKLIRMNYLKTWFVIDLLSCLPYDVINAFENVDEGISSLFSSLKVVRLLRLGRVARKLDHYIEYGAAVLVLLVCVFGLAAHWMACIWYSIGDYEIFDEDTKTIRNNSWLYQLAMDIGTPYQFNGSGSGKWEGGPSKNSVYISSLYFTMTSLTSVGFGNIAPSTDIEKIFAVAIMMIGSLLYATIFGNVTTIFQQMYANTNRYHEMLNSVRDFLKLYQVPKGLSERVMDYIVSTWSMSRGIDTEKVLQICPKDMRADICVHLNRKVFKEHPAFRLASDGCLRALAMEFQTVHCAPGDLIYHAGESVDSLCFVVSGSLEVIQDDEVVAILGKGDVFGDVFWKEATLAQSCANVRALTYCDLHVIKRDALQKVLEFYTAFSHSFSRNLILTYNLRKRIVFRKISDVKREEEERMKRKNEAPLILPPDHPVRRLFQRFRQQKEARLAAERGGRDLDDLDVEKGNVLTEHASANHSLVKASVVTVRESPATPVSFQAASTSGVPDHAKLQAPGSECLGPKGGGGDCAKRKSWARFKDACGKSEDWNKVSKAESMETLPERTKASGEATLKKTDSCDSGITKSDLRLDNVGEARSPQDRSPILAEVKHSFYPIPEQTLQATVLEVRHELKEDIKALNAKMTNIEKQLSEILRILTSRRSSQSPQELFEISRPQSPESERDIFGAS
Nature of the data set: Two-electrode voltage-clamp recordings of KV10.1 currents in Xenopus laevis oocytes. The data set is classed as cell-based. As to conditions: for KV10.1 inhibitory activity in words (structure-activity discussion): based on inhibition at 40 μM (Fig 5). The text has this:
For the expression of hKV10.1a (GeneBank accession number: NM_002238.3) in Xenopus oocytes, the hKV10.1a-pSGEM plasmid was linearized with SfiI (ThermoFisher Scientific, Waltham, Massachusetts, USA) and transcribed using the T7 mMESSAGE-mMACHINE transcription kit (Ambion®, Carlsbad, California, USA).
Stage V-VI Xenopus laevis (African clawed frog) oocytes were isolated by partial ovariectomy. Mature female animals were purchased from Nasco (Fort Atkinson, Wisconsin, USA) and were housed in the Aquatic Facility (KU Leuven) in compliance with the regulations of the European Union (EU) concerning the welfare of laboratory animals as declared in Directive 2010/63/EU. The use of Xenopus laevis was approved by the Animal Ethics Committee of the KU Leuven (Project nr. P038/2017). Prior to harvesting the oocytes, the animals were anesthetized by a 15-min submersion in 0.1% tricaine methanesulfonate (pH 7.0). Isolated oocytes were defolliculated with 1.5 mg/mL collagenase.
Defolliculated oocytes were injected with 4 nL of cRNA at a concentration of 1 ng/nL using a micro-injector (Drummond Scientific®, Broomall, Pennsylvania, USA). The oocytes were incubated in a solution containing (in mM): NaCl, 96; KCl, 2; CaCl2, 1.8; MgCl2, 2 and HEPES, 5 (pH 7.4), supplemented with 50 mg/L gentamycin sulfate.
Two-electrode voltage-clamp recordings were performed at room temperature (18–22°C) using a Geneclamp 500 amplifier (Molecular Devices, USA) controlled by a pClamp data acquisition system (Axon Instruments®, Union City, California, USA). Whole cell currents from oocytes were recorded 1–4 days after injection. Bath solution composition was (in mM): NaCl, 96; KCl, 2; CaCl2, 1.8; MgCl2, 2 and HEPES, 5 (pH 7.5). Voltage and current electrodes were filled with a 3 M solution of KCl in H2O. Resistances of both electrodes were kept between 0.5 and 1.5 MΩ. The elicited KV10.1 currents were filtered at 1 kHz and sampled at 2 kHz using a four-pole low-pass Bessel filter. Leak subtraction was performed using a -P/4 protocol. KV10.1 currents were evoked by 2-s depolarizing pulses to 0 mV from a holding potential of -90 mV unless otherwise indicated.
All electrophysiological data are presented as means ± S.E.M of n ≥ 3 independent experiments unless otherwise indicated. All data was analyzed using pClamp Clampfit 10.4 (Molecular Devices®, Downingtown, Pennsylvania, USA) and OriginPro 8 (Originlab®, Northampton, Massachusetts, USA) or GraphPad Prism 5 software (GraphPad Software, Inc., San Diego, California, USA).

[1] abbreviates: 40 μM, extracellular perfusion, average ± SEM, read-out: KV10.1 current inhibition.

Compound `CC(C)CCCOc1c(Br)cc(CCNC(=O)c2cc(Cl)cc(Cl)c2)cc1Br` [Compound 33] had a melting point of 107.5 to 109 °C. The inhibition at 40 µM on hKV10.1a (setting [1]) stood at 0%. In addition, on hKV10.1a, the “KV10.1 inhibitory activity in words (structure-activity discussion)” value (“KV10.1 inhibitory activity in words” below) is given as “total loss of the activity”. Consider `COc1c(Cl)cc(C(=O)NCCc2cc(Br)c(CCCN(C)C)c(Br)c2)cc1Cl` [Compound 23], for which the melting point was 91 to 95 °C. `COc1ccc(C(=O)NCCc2cc(Br)c(CCCN(C)C)c(Br)c2)cc1` [Compound 21] yielded a melting point of 106 to 109 °C.

`CNCCCOc1c(Br)cc(CCNC(=O)c2ccc(OC)cc2)cc1Br` [Compound 43]: the melting point lay in the range of 89 to 97 °C. In addition, the inhibition at 40 µM on hKV10.1a (setting [1]) was determined as 9 ± 5%. Compound `CC(C)CCCOc1c(Br)cc(CCNC(=O)c2cc(Br)cc(Br)c2)cc1Br` [Compound 32] yielded a melting point of 123 to 124 °C. Besides, the inhibition at 40 µM on hKV10.1a (setting [1]) came to 0%. In addition, the “KV10.1 inhibitory activity in words” value on hKV10.1a is listed as “total loss of the activity”.

For `COCC(=O)O[C@]1(CCN(C)CCCc2nc3ccccc3[nH]2)CCc2cc(F)ccc2[C@@H]1C(C)C` [mibefradil, reference compound], the inhibition at 10 µM at hKV10.1a (10 μM, 2-s depolarizing pulses to 0 mV from -90 mV, read-out: KV10.1 current inhibition) amounted to 50 ± 5%. As to `CN(C)CCCOc1c(Br)cc(CCNC(=O)c2ccccc2Br)cc1Br` [Compound 12], the inhibition at 40 µM on hKV10.1a (setting [1]) stood at 27 ± 4%. Still for that read-out and setting: the same measure for `CN(C)CCCOc1c(Br)cc(CCNC(=O)c2cc(F)cc(F)c2)cc1Br` [Compound 18]: 35 ± 2%. Compound `COc1c(Br)cc(C(=O)NCCc2cc(Br)c(CCCN(C)C)c(Br)c2)cc1Br` [Compound 26] displayed a melting point of 83 to 85 °C. The compound `CNCCCOc1c(Br)cc(CCNC(=O)c2cc(F)c(OC)c(F)c2)cc1Br` [Compound 46] came in with a melting point of 87 to 92 °C. For the same compound, at hKV10.1a (setting [1]), the inhibition at 40 µM was 14 ± 5%. For `CN(C)CCCOc1c(Br)cc(CCNC(=O)c2ccc(Br)cc2)cc1Br` [Compound 14], on hKV10.1a (setting [1]), the inhibition at 40 µM was 22 ± 3%. The same measure, in the same setting: to `CN(C)CCCOc1c(Br)cc(CCNC(=O)c2cncc(Br)c2)cc1Br` [Compound 15] belongs 50 ± 3%.

Turning to `COc1ccc(C(=O)NCCc2cc(Br)c(OCCCN(C)C)c(Br)c2)cc1I` [Compound 29], at hKV10.1a (setting [1]), the inhibition at 40 µM was 79 ± 2%. In turn, `CN(C)CCCc1c(Br)cc(CCNC(=O)c2cc(Cl)cc(Cl)c2)cc1Br` [Compound 16] gave a melting point of 83 to 84.5 °C. For `CNCCCOc1c(Br)cc(CCNC(=O)c2ccc(OC)c(Cl)c2)cc1Br` [Compound 44], the inhibition at 40 µM on hKV10.1a (setting [1]) was found to be 58 ± 1%. Compound `CCOc1c(Cl)cc(C(=O)NCCc2cc(Br)c(CCCN(C)C)c(Br)c2)cc1Cl` [Compound 24] displayed a melting point of 73 to 75 °C. `COc1ccc(C(=O)NCCc2cc(Br)c(OCCCN(C)C)c(Br)c2)cc1F` [Compound 27] returned a melting point of 83 to 89 °C. Further, the inhibition at 40 µM at hKV10.1a (setting [1]) came out at 65 ± 1%. For `CN(C)CCCOc1c(Br)cc(CCNC(=O)c2ccccc2F)cc1Br` [Compound 19], in that order: 70 to 72 °C and 32 ± 4%.

Take `CN(C)CCCOc1ccc(CCNC(=O)c2cc(Cl)cc(Cl)c2)cc1` [Compound 35]: the inhibition at 40 µM on hKV10.1a (setting [1]) came out at 4 ± 4%. Further, on hKV10.1a, the “KV10.1 inhibitory activity in words” value is recorded as “abolished the activity”. On to `COc1ccc(C(=O)NCCc2cc(Br)c(OCCCN(C)C)c(Br)c2)cc1Br` [Compound 25], for which the inhibition at 40 µM on hKV10.1a (setting [1]) came to 80 ± 4%. Still for that read-out and setting: the same measure for `COc1ccc(C(=O)NCCc2cc(Br)c(OCCCN(C)C)c(Br)c2)cc1C` [Compound 30]: 80 ± 2%. On hKV10.1a (40 μM, extracellular perfusion, average ± SEM), `O=C(NCCc1ccc(O)cc1)c1cc(Cl)cc(Cl)c1` [Compound 34] came in with a KV10.1 current inhibition of 0 ± 0%.

In turn, `COc1c(F)cc(C(=O)NCCc2cc(Br)c(CCCN(C)C)c(Br)c2)cc1F` [Compound 28] had a melting point of 93 to 96 °C. For `COc1ccc(C(=O)NCCc2cc(Br)c(OCCCN(C)C)c(Br)c2)cc1OC` [Compound 31], the inhibition at 40 µM at hKV10.1a (setting [1]) amounted to 44 ± 4%.

`CNCCCOc1c(Br)cc(CCNC(=O)c2cc(Cl)c(OC)c(Cl)c2)cc1Br` [Compound 45] displayed a melting point of 86 to 97 °C. Besides, on hKV10.1a (setting [1]), the inhibition at 40 µM is 39 ± 7%.

Values taken from publication PMC5722316, “Synthesis of novel purpurealidin analogs and evaluation of their effect on the cancer-relevant potassium channel KV10.1” (PLoS ONE, 2017).
